Patent US20150094474A1, “AGRICULTURAL CHEMICALS” (Redx Pharma Ltd., priority 2012, published 2015)

Test system: Chinese cabbage
Experiment: Herbicidal bioassay, Chinese cabbage (% necrosis)
Assay type: in vivo
Description: A laboratory bioassay was conducted to screen ten compounds (Fluazifop (25); Ethyl fluazifop (62); five fluazifop analogues: 27, 28, 63, 64 and 65; mesofulfuron (6); and two mesosulfuron analogues: 8 and 61. for activity against Lolium perenne, barley, peas and Chinese cabbage. Compounds were diluted in DMSO. Controls were performed using both DMSO and water.
Plants were obtained as seeds and were grown to the 2-4 true leaf stage. Plants were grown individually in seed trays. Each plant (in an approximately 3 cm diameter plug) was then detached from the tray for spraying. Environmental conditions were closely monitored and recorded and were within the optimal range of the target species.
The compounds were screened at a range of six concentrations, eg. 0.05%, 0.01%, 0.005%, 0.001%, 0.0005% and 0.0001%. Treatments will be applied directly onto the plants, using a potter tower.
One plant of each type will be sprayed using a potter tower. The 4 different types of weeds will be placed in a 10 cm diameter area underneath the potter sprayer and sprayed simultaneously. The growth of the plants and any Phytotoxicity effects will then be assessed at specified growth intervals, according to EPPO guideline PP1/135. Five replicates will be performed for each treatment, for each species.

CCOC(=O)C(C)Oc1ccc(Oc2ccc(C(F)(F)F)cn2)cc1 (stereo not drawn) [Fluazifop Ethyl ester (62)]
Sum of % necrosis in Chinese cabbage (Dose 0.000001, Day 0): C (less than 50% necrosis) | Sum of % necrosis in Chinese cabbage (Dose 0.000001, Day 1): C (less than 50% necrosis) | Sum of % necrosis in Chinese cabbage (Dose 0.000001, Day 3): C (less than 50% necrosis) | Sum of % necrosis in Chinese cabbage (Dose 0.000001, Day 7): C (less than 50% necrosis) | Sum of % necrosis in Chinese cabbage (Dose 0.000001, Day 10): C (less than 50% necrosis) | Sum of % necrosis in Chinese cabbage (Dose 0.000001, Day 14): C (less than 50% necrosis) | Sum of % necrosis in Chinese cabbage (Dose 0.000001, Day 21): C (less than 50% necrosis) | Sum of % necrosis in Chinese cabbage (Dose 0.000005, Day 0): C (less than 50% necrosis) | Sum of % necrosis in Chinese cabbage (Dose 0.000005, Day 1): C (less than 50% necrosis) | Sum of % necrosis in Chinese cabbage (Dose 0.000005, Day 3): C (less than 50% necrosis) | Sum of % necrosis in Chinese cabbage (Dose 0.000005, Day 7): C (less than 50% necrosis) | Sum of % necrosis in Chinese cabbage (Dose 0.000005, Day 10): A (over 80% necrosis) | Sum of % necrosis in Chinese cabbage (Dose 0.000005, Day 14): A (over 80% necrosis) | Sum of % necrosis in Chinese cabbage (Dose 0.000005, Day 21): A (over 80% necrosis) | Sum of % necrosis in Chinese cabbage (Dose 0.00001, Day 0): C (less than 50% necrosis) | Sum of % necrosis in Chinese cabbage (Dose 0.00001, Day 1): C (less than 50% necrosis) | Sum of % necrosis in Chinese cabbage (Dose 0.00001, Day 3): C (less than 50% necrosis) | Sum of % necrosis in Chinese cabbage (Dose 0.00001, Day 7): C (less than 50% necrosis) | Sum of % necrosis in Chinese cabbage (Dose 0.00001, Day 10): B (50%-80% necrosis) | Sum of % necrosis in Chinese cabbage (Dose 0.00001, Day 14): A (over 80% necrosis) | Sum of % necrosis in Chinese cabbage (Dose 0.00001, Day 21): A (over 80% necrosis) | Sum of % necrosis in Chinese cabbage (Dose 0.00005, Day 0): C (less than 50% necrosis) | Sum of % necrosis in Chinese cabbage (Dose 0.00005, Day 1): C (less than 50% necrosis) | Sum of % necrosis in Chinese cabbage (Dose 0.00005, Day 3): C (less than 50% necrosis) | Sum of % necrosis in Chinese cabbage (Dose 0.00005, Day 7): B (50%-80% necrosis) | Sum of % necrosis in Chinese cabbage (Dose 0.00005, Day 10): A (over 80% necrosis) | Sum of % necrosis in Chinese cabbage (Dose 0.00005, Day 14): A (over 80% necrosis) | Sum of % necrosis in Chinese cabbage (Dose 0.00005, Day 21): A (over 80% necrosis) | Sum of % necrosis in Chinese cabbage (Dose 0.0001, Day 0): C (less than 50% necrosis) | Sum of % necrosis in Chinese cabbage (Dose 0.0001, Day 1): C (less than 50% necrosis) | Sum of % necrosis in Chinese cabbage (Dose 0.0001, Day 3): C (less than 50% necrosis) | Sum of % necrosis in Chinese cabbage (Dose 0.0001, Day 7): B (50%-80% necrosis) | Sum of % necrosis in Chinese cabbage (Dose 0.0001, Day 10): A (over 80% necrosis) | Sum of % necrosis in Chinese cabbage (Dose 0.0001, Day 14): A (over 80% necrosis) | Sum of % necrosis in Chinese cabbage (Dose 0.0001, Day 21): A (over 80% necrosis) | Sum of % necrosis in Chinese cabbage (Dose 0.0005, Day 0): C (less than 50% necrosis) | Sum of % necrosis in Chinese cabbage (Dose 0.0005, Day 1): C (less than 50% necrosis) | Sum of % necrosis in Chinese cabbage (Dose 0.0005, Day 3): B (50%-80% necrosis) | Sum of % necrosis in Chinese cabbage (Dose 0.0005, Day 7): A (over 80% necrosis) | Sum of % necrosis in Chinese cabbage (Dose 0.0005, Day 10): A (over 80% necrosis) | Sum of % necrosis in Chinese cabbage (Dose 0.0005, Day 14): A (over 80% necrosis) | Sum of % necrosis in Chinese cabbage (Dose 0.0005, Day 21): A (over 80% necrosis)
